Assay results taken from PMC5103075, “An immunostimulatory dual-functional nanocarrier that improves cancer immunochemotherapy” (Nature Communications, 2016).
Converted amounts (≈) assume the structure as drawn. Like-named read-outs stand apart in the source and are kept apart here.

Assays:
4T1.2 cells = assay: MTT cytotoxicity in 4T1.2 cells; type: cell-based, mouse; conditions: 4T1.2, 72 h; for IC50: means±s.e.m.
Protocol: (§1) 4T1.2 or PC3 cells at 2,000 cells/well were seeded in 96-well plates, respectively. […] After 3 days of incubation, 20 μl of 3-(4, 5-dimethylthiazol-2-yl)-2,5-diphenyltetrazoliumbromide (MTT) in DPBS (5 mg ml^−1) was added to each well and cells were further incubated for 2 h. Medium was removed and MTT formazan crystals were solubilized by 100 μl of DMSO per well. Absorbance of each well was measured with a microplate reader at wavelength of 550 nm. Untreated wells were used as controls. Cell viability was calculated as ((ODtreated−ODblank)/(ODcontrol−ODblank) × 100%).

PC3 cells = assay: MTT cytotoxicity in PC3 cells; type: cell-based; conditions: Homo sapiens, PC-3, PC3, 72 h, means±s.e.m.
Protocol: as §1

Compound	Cytotoxicity (tumour cell growth inhibition) (4T1.2 cells; Fig. 3d)	IC50 (4T1.2 cells; Mus musculus, read-out: IC50)	IC50 (PC3 cells)	IC50 (4T1.2 cells)
CC(=O)O[C@H]1C(=O)[C@@]2(C)[C@H]([C@H](OC(=O)c3ccccc3)[C@]3(O)C[C@H](OC(=O)[C@H](O)[C@@H](NC(=O)c4ccccc4)c4ccccc4)C(C)=C1C3(C)C)[C@]1(OC(C)=O)CO[C@@H]1C[C@@H]2O [PTX, Paclitaxel]	inhibited the tumour cell growth in a concentration-dependent manner	0.245 ± 0.0211 µg/mL (≈ 0.286 µM)	0.101 ± 0.0112 µg/mL (≈ 0.119 µM)	
COc1cccc2c1C(=O)c1c(O)c3c(c(O)c1C2=O)C[C@@](O)(C(=O)CO)C[C@@H]3O[C@H]1C[C@H](N)[C@H](O)[C@H](C)O1 [DOX, doxorubicin]				0.2686 ± 0.02728 µg/mL (≈ 0.494 µM)
